Assay results published in US10364256B2 (GlaxoSmithKline Intellectual Property Development Limited, priority 2015, dated 2019).
Read-outs that look alike come from different tables or passages of the source.

Columns and labels:
[1] = system: NQO1 specific enzyme activity in BEAS-2B cells (marker for NRF2 activation); assay: BEAS-2B NQO1 MTT Assay; type: cell-based; conditions: Homo sapiens, compound incubated 48 hours, read-out: EC50 (NQO1 specific enzyme activity induction)
Summary of the method: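 NQO1 specific activity induction is derived from the rate of MTT reduction (ΔOD/min, 570 nm, 30 min kinetic read) in crude lysates of BEAS-2B cells exposed to compound for 48 h. A 3-parameter fit gives EC50, reported as pEC50; part of each lysate goes to Cell Titer Glo.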

[2] = target: T1, Keap1 Kelch domain (321-609) / TAMRA-labeled 16mer NRF2 peptide (ETGE motif) (Homo sapiens, UniProt Q14145); assay: NRF2-Keap1 FP Assay (Keap1 Kelch fluorescence polarization); type: binding; conditions: 20 nM Keap1 (321-609), 8 nM Tamra labeled peptide
T1 construct: the Kelch domain (321-609) of Keap1 is used
T1 sequence (Q14145 321-609): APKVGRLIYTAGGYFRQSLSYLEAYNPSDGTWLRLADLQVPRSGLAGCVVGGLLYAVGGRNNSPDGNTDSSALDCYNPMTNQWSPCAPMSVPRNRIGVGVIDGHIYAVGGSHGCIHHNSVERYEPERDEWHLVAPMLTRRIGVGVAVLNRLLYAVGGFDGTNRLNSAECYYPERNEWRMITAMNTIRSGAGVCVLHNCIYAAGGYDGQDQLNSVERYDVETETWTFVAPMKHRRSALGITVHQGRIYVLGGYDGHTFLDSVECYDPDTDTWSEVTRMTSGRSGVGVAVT
Summary of the method: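 Compound dilutions (3-fold) were incubated 1 hr at room temperature with 20 nM Keap1 Kelch (321-609) and 8 nM TAMRA-labeled ETGE 16mer peptide. Buffer was 50 mM Tris pH 8.0, 100 mM NaCl, 5 mM MgCl2, 1 mM DTT, 2 mM CHAPS, 0.005% BSA. Fluorescence polarization (mP) was normalized to controls and fitted with a four-parameter equation to give pIC50.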

SMILES | IC50 [2] [nM] | EC50 [1] [nM] | EC50 ([1]; BEAS-2B, 48 h) [nM]
CCCC1CCCCN1C(=O)c1cccc(-c2cccc(-n3ncc(C(=O)O)c3C3CC3)c2)c1F (centres unmarked) [Example 17, 5-Cyclopropyl-1-{3-[2-fluoro-3-(2-propylpiperidine-1-carbonyl)phenyl]phenyl}-1H-pyrazole-4-carboxylic Acid] | 10 to 100 | 100 to 1000 | 
O=C(O)c1cnn(-c2cccc(-c3cccc(-n4ncc5c4CCC5)c3)c2)c1C1CC1 [Example 61, 5-Cyclopropyl-1-(3′-(5,6-dihydrocyclopenta[c]pyrazol-1(4H)-yl)-[1,1′-biphenyl]-3-yl)-1H-pyrazole-4-carboxylic Acid] | 100 to 1000 |  | 100 to 1000
CC(Oc1cccc(-c2cccc(-n3ncc(C(=O)O)c3[C@H]3C[C@@H]3c3cn(C)nn3)c2)c1)C1CCCCC1 (stereo partly drawn) [Example 165, 1-(3′-(1-Cyclohexylethoxy)-[1,1′-biphenyl]-3-yl)-5-((1S,2S)-2-(1-methyl-1H-1,2,3-triazol-4-yl)cyclopropyl)-1H-pyrazole-4-carboxylic acid] | 10 to 100 |  | 1 to 10
COC1CCCCC1COc1cccc(-c2cccc(-n3ncc(C(=O)O)c3[C@H]3C[C@@H]3c3cn(C)nn3)c2)c1 (mixture of isomers) [Example 177, 1-(3′-((2-Methoxycyclohexyl)methoxy)-[1,1′-biphenyl]-3-yl)-5-((1,2-trans)-2-(1-methyl-1H-1,2,3-triazol-4-yl)cyclopropyl)-1H-pyrazole-4-carboxylic acid] | 100 to 1000 | 100 to 1000 | 
CC(Oc1cccc(-c2cccc(-n3ncc(C(=O)O)c3[C@@H]3C[C@H]3c3cn(C)nn3)c2)c1)C1CCCCC1 (stereo partly drawn) [Example 163, 1-(3′-(1-Cyclohexylethoxy)-[1,1′-biphenyl]-3-yl)-5-((1R,2R)-2-(1-methyl-1H-1,2,3-triazol-4-yl)cyclopropyl)-1H-pyrazole-4-carboxylic acid] | 100 to 1000 |  | 10 to 100
CCC[C@@H]1CCCCN1C(=O)c1cccc(-c2cc(C)cc(-n3ncc(C(=O)O)c3[C@@H]3C[C@H]3c3cn(C)nn3)c2)c1 (single isomer, unassigned) [Example 155] | 10 to 100 |  | 100 to 1000
CC(CC1CCCCC1)Oc1cccc(-c2cccc(-n3ncc(C(=O)O)c3C3CC3)c2)c1 (centres unmarked) [Example 161, 1-(3′-((1-Cyclohexylpropan-2-yl)oxy)-[1,1′-biphenyl]-3-yl)-5-cyclopropyl-1H-pyrazole-4-carboxylic Acid] | 1000 to 10000 | 100 to 1000 | 
CCC[C@@H]1CCCCN1C(=O)c1cccc(-c2cccc(-n3ncc(C(=O)O)c3[C@H]3C[C@@H]3c3cn(C)nn3)c2)c1 [Example 51g, 5-[(1S,2S)-2-(1-methyl-1H-1,2,3-triazol-4-yl)cyclopropyl]-1-(3-{3-[(2R)-2-propylpiperidine-1-carbonyl]phenyl}phenyl)-1H-pyrazole-4-carboxylic Acid] | 100 to 1000 |  | 1000 to 10000
CCC[C@@H]1CCCCN1C(=O)c1cccc(-c2cc(C)cc(-n3ncc(C(=O)O)c3C3CC3c3cn(C)nn3)c2)c1 (stereo partly drawn) [Example 154, 5-(2-(1-Methyl-1H-1,2,3-triazol-4-yl)cyclopropyl)-1-(5-methyl-3′-((R)-2-propylpiperidine-1-carbonyl)-[1,1′-biphenyl]-3-yl)-1H-pyrazole-4-carboxylic Acid] | 10 to 100 |  | 100 to 1000
Cn1cc([C@@H]2C[C@H]2c2c(C(=O)O)cnn2-c2cccc(-c3cccc(OCC4CCSCC4)c3)c2)nn1 (racemic) [Example 149, 5-((1,2-trans)-2-(1-Methyl-1H-1,2,3-triazol-4-yl)cyclopropyl)-1-(3′-((tetrahydro-2H-thiopyran-4-yl)methoxy)-[1,1′-biphenyl]-3-yl)-1H-pyrazole-4-carboxylic acid] | 100 to 1000 | 100 to 1000 | 
COC1CCCC(COc2cccc(-c3cccc(-n4ncc(C(=O)O)c4[C@H]4C[C@@H]4c4cn(C)nn4)c3)c2)C1 (mixture of isomers) [Example 178, 1-(3′-((3-Methoxycyclohexyl)methoxy)-[1,1′-biphenyl]-3-yl)-5-((1,2-trans)-2-(1-methyl-1H-1,2,3-triazol-4-yl)cyclopropyl)-1H-pyrazole-4-carboxylic acid] | 10 to 100 | 100 to 1000 | 

Now from value to molecule, other results behind:

IC50 [2] [nM] | SMILES | EC50 [1] [nM] | EC50 ([1]; BEAS-2B, 48 h) [nM]
10 to 100 | CCn1cc([C@H]2C[C@@H]2c2c(C(=O)O)cnn2-c2cccc(-c3cccc(OC(C)C4CCCCC4)c3)c2)nn1 (mixture of isomers) [Example 192, 1-(3′-(1-cyclohexylethoxy)-[1,1′-biphenyl]-3-yl)-5-((1,2-trans)-2-(1-ethyl-1H-1,2,3-triazol-4-yl)cyclopropyl)-1H-pyrazole-4-carboxylic acid] | 1 to 10 | 
100 to 1000 | CC(Oc1cccc(-c2cccc(-n3ncc(C(=O)O)c3[C@H]3C[C@@H]3c3cn(C)nn3)c2)c1)c1ccc(-c2ccccc2)cc1 (mixture of isomers) [Example 240, 1-(3′-(1-([1,1′-Biphenyl]-4-yl)ethoxy)-[1,1′-biphenyl]-3-yl)-5-((1,2- trans)-2-(1-methyl-1H-1,2,3-triazol-4-yl)cyclopropyl)-1H-pyrazole-4-carboxylic acid] | 100 to 1000 | 
10 to 100 | Cn1cc([C@@H]2C[C@H]2c2c(C(=O)O)cnn2-c2cccc(-c3cccc(OCCC4CCCCC4)c3)c2)nn1 (racemic) [Example 245, 1-(3′-(2-cyclohexylethoxy)-[1,1′-biphenyl]-3-yl)-5-(trans-2-(1-methyl-1H-1,2,3-triazol-4-yl)cyclopropyl)-1H-pyrazole-4-carboxylic Acid] | 10 to 100 | 
100 to 1000 | Cn1cc([C@H]2C[C@@H]2c2c(C(=O)O)cnn2-c2cccc(-c3cccc(OCc4ccc(-c5ccccc5)cc4)c3)c2)nn1 (racemic) [Example 237, 1-(3′-([1,1′-Biphenyl]-4-ylmethoxy)-[1,1′-biphenyl]-3-yl)-5-((1,2-trans)-2-(1-methyl-1H-1,2,3-triazol-4-yl)cyclopropyl)-1H-pyrazole-4-carboxylic Acid] | 100 to 1000 | 
1000 to 10000 | CCc1nc(-c2cccc(-c3cccc(-n4ncc(C(=O)O)c4C4CC4)c3)c2)no1 [Example 209, 5-Cyclopropyl-1-(3′-(5-ethyl-1,2,4-oxadiazol-3-yl)-[1,1′-biphenyl]-3-yl)-1H-pyrazole-4-carboxylic Acid] | 1000 to 10000 | 
100 to 1000 | Cc1nn(-c2cccc(-c3cccc(OCC4CCCCC4)c3)c2)c(C2CC2c2cn(C)nn2)c1C(=O)O (centres unmarked) [Example 188, 1-(3′-(cyclohexylmethoxy)-[1,1′-biphenyl]-3-yl)-3-methyl-5-(2-(1-methyl-1H-1,2,3-triazol-4-yl)cyclopropyl)-1H-pyrazole-4-carboxylic Acid] | 100 to 1000 | 
10 to 100 | Cn1cc([C@H]2C[C@@H]2c2c(C(=O)O)cnn2-c2cccc(-c3cccc(-n4ncc5c4C(C)(C)CC5)c3)c2)nn1 (stereo in doubt) [Example 208, 1-(3′-(6,6-Dimethyl-5,6-dihydrocyclopenta[c]pyrazol-1(4H)-yl)-[1,1′-biphenyl]-3-yl)-5-((1S,2S)-2-(1-methyl-1H-1,2,3-triazol-4-yl)cyclopropyl)-1H-pyrazole-4-carboxylic Acid] | 10 to 100 | 
10 to 100 | CC(Oc1cccc(-c2cccc(-n3ncc(C(=O)O)c3C3CC3c3cn(C)nn3)c2)c1)C1CCOCC1 (centres unmarked) [Example 227, 5-(2-(1-Methyl-1H-1,2,3-triazol-4-yl)cyclopropyl)-1-(3′-(1-(tetrahydro-2H-pyran-4-yl)ethoxy)-[1,1′-biphenyl]-3-yl)-1H-pyrazole-4-carboxylic Acid] | 100 to 1000 | 
100 to 1000 | CC(Oc1cccc(-c2cccc(-n3ncc(C(=O)O)c3[C@H]3C[C@@H]3c3cn(C)nn3)c2)c1)c1cccc(-c2ccccc2)c1 (mixture of isomers) [Example 239, 1-(3′-(1-([1,1′-Biphenyl]-3-yl)ethoxy)-[1,1′-biphenyl]-3-yl)-5-((1,2-trans)-2-(1-methyl-1H-1,2,3-triazol-4-yl)cyclopropyl)-1H-pyrazole-4-carboxylic Acid] | 100 to 1000 | 
10 to 100 | CC(Oc1cccc(-c2cccc(-n3ncc(C(=O)O)c3C3CC3c3cn(C)nn3)c2)c1)C1CCCC1 (centres unmarked) [Example 228, 1-(3′-(1-Cyclopentylethoxy)-[1,1′-biphenyl]-3-yl)-5-(2-(1-methyl-1H-1,2,3-triazol-4-yl)cyclopropyl)-1H-pyrazole-4-carboxylic acid] | 1 to 10 | 
10 to 100 | CCC[C@@H]1CCCCN1C(=O)c1cccc(-c2cccc(-n3nc(C)c(C(=O)O)c3C3CC3c3cn(C)nn3)c2)c1 (stereo partly drawn) [Example 202, 3-Methyl-5-(2-(1-methyl-1H-1,2,3-triazol-4-yl)cyclopropyl)-1-(3′-((R)-2-propylpiperidine-1-carbonyl)-[1,1′-biphenyl]-3-yl)-1H-pyrazole-4-carboxylic acid] |  | 100 to 1000
10 to 100 | Cn1cc(C2CC2c2c(C(=O)O)cnn2-c2cccc(-c3cccc(OCc4ccccc4F)c3)c2)nn1 (centres unmarked) [Example 222, 1-(3′-((2-Fluorobenzyl)oxy)-[1,1′-biphenyl]-3-yl)-5-(2-(1-methyl-1H-1,2,3-triazol-4-yl)cyclopropyl)-1H-pyrazole-4-carboxylic acid] | 100 to 1000 | 
10 to 100 | Cn1cc(C2CC2c2c(C(=O)O)cnn2-c2cccc(-c3cccc(OC4CCCCC4)c3)c2)nn1 (centres unmarked) [Example 229] | 10 to 100 | 
100 to 1000 | CCCCC1CCc2cnn(-c3cccc(-c4cccc(-n5ncc(C(=O)O)c5C5CC5)c4)c3)c21 (centres unmarked) [Example 206, 1-(3′-(6-Butyl-5,6-dihydrocyclopenta[c]pyrazol-1(4H)-yl)-[1,1′-biphenyl]-3-yl)-5-cyclopropyl-1H-pyrazole-4-carboxylic Acid] | 100 to 1000 | 
